Read-outs that look alike come from different tables or passages of the source.
How the values were obtained:
PIM-1 = PIM-1 (Homo sapiens (Human), UniProt P11309); experiment: Luminometric kinase assay for PIM1 kinase (Kinase-Glo); assay type: biochemical; conditions: 1 μM ATP, 25 min at RT
Summary of the method: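 Kinase and substrate reacted in 8 mM MOPS/NaOH pH7.0, 0.2 mM EDTA, 2 mM MgCl2 with 1 μM ATP for 25 min at RT, compounds serially diluted from 1 μM. Remaining ATP read by Kinase-Glo luminescence; IC50 from variable-slope sigmoidal fit.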

[1] = system: human myelomonocytic, biphenotypic leukemia MV4-11 cells; experiment: Growth inhibition test (MTS) on MV4-11 cells; assay type: cell-based; conditions: Homo sapiens, MV4-11, 72 hours, read-out: MV-4-11 ED50
Summary of the method: MV4-

[2] = system: human erytroblast leukemia HEL-92.1.7 cells; experiment: Growth inhibition test (MTS) on HEL-92.1.7 cells; assay type: cell-based; conditions: 72 hours, read-out: HEL92 ED50
Procedure: (§1) Ten thousand cells of human erytroblast leukemia HEL-92.1.7 were inoculated into each well of a 96-well microplate (manufactured by Corning Corp.) using RPMI 1640 medium (culture medium) containing 10% fetal calf serum (FCS). Next day, a dimethyl sulfoxide (DMSO) solution of each test compound prepared in a concentration of 10 mmol/L was further diluted with culture medium to the desired concentrations (0.1, 0.5, 1, 2.5, 5 and 10 micromol/L), and the diluted solution was added to each well. The individual wells were further cultured in 5% carbon dioxide at 37° C. for 72 hours. After completion of the culture, 10 μl MTS (3-(4,5-Dimethyl-2-thiazolyl)-5-(carboxymethoxyphenyl)-2-(4-sulfophenyl)-2H-tetrazolium, inner salt assay (CellTiter96® AQueous One Solution Cell Proliferation Assay, Promega) was added to each well, and culturing was performed in 5% carbon dioxide at 37° C. for 2 hours. Using a microplate spectrophotometer (Synergy 2 multi-mode microplate reader (BioTek)), the absorbance of each well was measured at 490 nm. The value for cells not incorporated with a test compound was designated as 100%. By comparing these values with the absorbance difference obtained at the well in which each test compound was added, the cell viability (% viability) after treatment with the test compound was calculated.

[3] = system: human breast adenocarcinoma MCF7 cells; experiment: Growth inhibition test (MTS) on MCF7 cells; assay type: cell-based; conditions: Homo sapiens, MCF7, 72 hours, read-out: MCF-7 ED50
Summary of the method: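 MCF7 cells seeded in DMEM with 10% FCS, dosed next day at 0.1–10 micromol/L (diluted from 10 mmol/L DMSO stock) and cultured 72 h at 37° C, 5% CO2. MTS added for 2 h, absorbance read at 490 nm; % viability calculated relative to untreated cells as 100%.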

[4] = system: human prostate adenocarcinoma PC3 cells; experiment: Growth inhibition test (MTS) on PC3 cells; assay type: cell-based; conditions: Homo sapiens, PC-3, 72 hours, read-out: PC-3 ED50
[5] = system: human hepatoma HepG2 cells; experiment: Growth inhibition test (MTS) on HepG2 cells; assay type: cell-based; conditions: 72 hours, read-out: HepG2 ED50
Summary of the method: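 HepG2 cells in DMEM with 10% FCS were exposed for 72 h at 37 °C, 5% CO2, to 0.1, 0.5, 1, 2.5, 5 and 10 micromol/L compound. MTS was then added for 2 h and absorbance read at 490 nm. % viability was calculated relative to untreated cells set at 100%.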

[6] = system: human chronic myelocytic leukemia K562 cells; experiment: Growth inhibition test (MTS) on K562 cells; assay type: cell-based; conditions: 72 hours, read-out: K562 ED50
Procedure: as §1, with “chronic myelocytic” for “erytroblast”, “K562” for “HEL-92.1.7”, “Iscove's MDM” for “RPMI 1640”

[7] = system: human colorectal adenocarcinoma SW480 cells; experiment: Growth inhibition test (MTS) on SW480 cells; assay type: cell-based; conditions: read-out: SW480 ED50
Procedure: as §1, with “Two” for “Ten”, “colorectal adenocarcinoma SW480” for “erytroblast leukemia HEL-92.1.7”, “Corp.), and” for “Corp.)”, “DMEM/Ham's F121:1” for “RPMI 1640”, “5%” for “10%”

[8] = system: human acute lymphocytic leukemia E6.1 Jurkat cells; experiment: Growth inhibition test (MTS) on E6.1 Jurkat cells; assay type: cell-based; conditions: 72 hours, read-out: Jurkat ED50
Procedure: as §1, with “Twenty” for “Ten”, “acute lumphocytic” for “erytroblast”, “E6.1 Jurkat” for “HEL-92.1.7”, “[…]” for “1640”

Chain of PIM-1 (P11309 whole entry): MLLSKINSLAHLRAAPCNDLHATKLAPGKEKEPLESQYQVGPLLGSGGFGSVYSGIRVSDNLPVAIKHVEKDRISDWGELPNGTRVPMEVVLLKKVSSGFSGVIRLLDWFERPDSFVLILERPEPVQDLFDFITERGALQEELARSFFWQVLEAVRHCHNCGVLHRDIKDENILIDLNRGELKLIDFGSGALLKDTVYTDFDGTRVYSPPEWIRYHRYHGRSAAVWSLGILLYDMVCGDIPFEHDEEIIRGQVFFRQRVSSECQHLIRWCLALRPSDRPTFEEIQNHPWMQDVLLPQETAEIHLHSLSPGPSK

SMILES | IC50 (PIM-1) | IC50 [1] | IC50 [2] | IC50 [3] | IC50 [4] | IC50 [5] | IC50 [6] | IC50 ([7]; 72 hours) | IC50 [8] | IC50 ([7]; Homo sapiens, SW480, 72 hours)
N[C@H]1CCCC[C@H]1Nc1nc2c(Br)c(Br)c(Br)c(Br)c2[nH]1 (relative stereo) [Compound 304cis, cis N1-(4,5,6,7-tetrabromo-1H-benzo[d]imidazol-2-yl)cyclohexane-1,2-diamine] | 0.0069 µM | 0.33 µM | 1.82 µM | 0.7 µM | 1.47 µM | 1.34 µM |  |  |  | 
CN1CCN(c2nc3c(Br)c(Br)c(Br)c(Br)c3[nH]2)CC1 [Compound 21, 4,5,6,7-tetrabromo-2-(4-methylpiperazin-1-yl)-1H-benzo[d]imidazole] | 0.0419 µM |  |  |  |  | 6.32 µM | 7.99 µM | 5.98 µM |  | 
Brc1c(Br)c(Br)c2[nH]c(NCCCn3ccnc3)nc2c1Br [Compound 65, N-(3-(1H-imidazol-1-yl)propyl)-4,5,6,7-tetrabromo-1H-benzo[d]imidazol-2-amine] | 0.0227 µM | 3.46 µM | 8.37 µM | 8.22 µM | 7.45 µM |  |  | 6.92 µM |  | 
CN(C)CC(CNc1nc2c(Br)c(Br)c(Br)c(Br)c2[nH]1)C(O)c1ccccc1 (stereo not shown) [Compound 272, 2-((4,5,6,7-tetrabromo-1H-benzo[d]imidazol-2-ylamino)methyl)-3-(dimethylamino)-1-phenylpropan-1-ol] | 0.0433 µM | 2.42 µM |  | 4.51 µM | 4.87 µM | 2.26 µM |  |  | 2.76 µM | 
N[C@@H]1CCCC[C@H]1Nc1nc2c(Br)c(Br)c(Br)c(Br)c2[nH]1 [Compound 304RR, (1R,2R)-N1-(4,5,6,7-tetrabromo-1H-benzo[d]imidazol-2-yl)cyclohexane-1,2-diamine] | 0.00526 µM | 0.25 µM |  | 2.36 µM | 3.16 µM | 2.64 µM |  |  | 3.15 µM | 
N[C@H]1CCCC[C@@H]1Nc1nc2c(Br)c(Br)c(Br)c(Br)c2[nH]1 [Compound 304SS, (1S,2S)-N1-(4,5,6,7-tetrabromo-1H-benzo[d]imidazol-2-yl)cyclohexane-1,2-diamine] | 0.0116 µM | 0.98 µM |  | 5.03 µM | 5.17 µM | 3.21 µM |  |  | 5.07 µM | 
COc1ccc(Nc2nc3c(Br)c(Br)c(Br)c(Br)c3[nH]2)cc1OC [Compound 307, 4,5,6,7-tetrabromo-N-(3,4-dimethoxyphenyl)-1H-benzo[d]imidazol-2-amine] | 0.287 µM | 6.03 µM |  | 9.43 µM | 8.31 µM | 1.23 µM |  |  | 8.97 µM | 

Next, values leading:

IC50 (PIM-1) | IC50 [1] | IC50 [2] | IC50 [3] | IC50 [4] | IC50 [5] | IC50 [6] | IC50 ([7]; 72 hours) | IC50 [8] | IC50 ([7]; Homo sapiens, SW480, 72 hours) | SMILES
0.0162 µM | 3.27 µM | 3.15 µM |  | 7.51 µM | 6.59 µM |  |  |  |  | Nc1ccccc1Nc1nc2c(Br)c(Br)c(Br)c(Br)c2[nH]1 [Compound 332, N1-(4,5,6,7-tetrabromo-1H-benzo[d]imidazol-2-yl)benzene-1,2-diamine]
0.0485 µM | 3.86 µM | 3.25 µM | 4.76 µM | 2.49 µM | 4.52 µM |  |  |  |  | Nc1cc(F)c(F)cc1Nc1nc2c(Br)c(Br)c(Br)c(Br)c2[nH]1 [Compound 333, N1-(4,5,6,7-tetrabromo-1H-benzo[d]imidazol-2-yl)-4,5-difluorobenzene-1,2-diamine]
0.108 µM | 4.47 µM | 6.93 µM | 3.09 µM | 8.59 µM | 2.61 µM |  |  |  |  | NCc1cccc(CNc2nc3c(Br)c(Br)c(Br)c(Br)c3[nH]2)c1 [Compound 354, N-(3-(aminomethyl)benzyl)-4,5,6,7-tetrabromo-1H-benzo[d]imidazol-2-amine]
0.0452 µM | 1.65 µM | 3.98 µM | 2.54 µM | 2.4 µM | 1.32 µM |  |  |  |  | CNCCCN(Cc1ccccc1)c1nc2c(Br)c(Br)c(Br)c(Br)c2[nH]1 [Compound 372, N-benzyl-4,5,6,7-tetrabromo-N-(3-(methylamino)propyl)-1H-benzo[d]imidazol-2-amine]
 | 5.17 µM | 7.93 µM |  | 6.61 µM | 9.4 µM |  |  |  |  | CCOC(=O)N1CCN(c2nc3c(Br)c(Br)c(Br)c(Br)c3[nH]2)CC1 [Compound 376, ethyl 4-(4,5,6,7-tetrabromo-1H-benzo[d]imidazol-2-yl)piperazine-1-carboxylate]
 | 5.92 µM | 9.73 µM |  | 5.99 µM | 9.72 µM |  |  |  |  | CCOC(=O)N1CCN(c2nc3c(Br)c(Br)c(Br)c(Br)c3n2C(=O)OCC)CC1 [Compound 377, ethyl 2-(4-(ethoxycarbonyl)piperazin-1-yl)-4,5,6,7-tetrabromo-1H-benzo[d]imidazole-1-carboxylate]
0.0453 µM | 4.57 µM | 2.21 µM | 5.8 µM | 6.88 µM | 3.76 µM |  |  |  |  | CN1CCN(C2CCN(c3nc4c(Br)c(Br)c(Br)c(Br)c4[nH]3)CC2)CC1 [Compound 385, 4,5,6,7-tetrabromo-2-(4-(4-methylpiperazin-1-yl)piperidin-1-yl)-1H-benzo[d]imidazole]
 | 3.03 µM | 7.1 µM | 8.23 µM | 8.94 µM |  |  |  |  | 4.32 µM | Cc1nc2ccccn2c1CN1CCN(c2nc3c(Br)c(Br)c(Br)c(Br)c3[nH]2)CC1 [Compound 414, 4,5,6,7-tetrabromo-2-(4-((2-methyl-1H-imidazo[1,2-a]pyridin-3-yl)methyl)piperazin-1-yl)-1H-benzo[d]imidazole]

Reference: patent US8604217B2, “Compound, a process for its preparation, a pharmaceutical composition, use of a compound, a method for modulating or regulating serine/threonine kinases and a serine/threonine kinases modulating agent” (Selvita S.A., priority 2009, dated 2013)
